Key:
SIRT1 [1] = target: T1, SIRT1 (Homo sapiens, UniProt Q96EB6); test: SIRT1 fluorescence polarization (FP) deacetylation assay with p53-based peptide substrates; format: biochemical; conditions: SIRT1 activation, read-out: ED50 FP ASSAY
T1 sequence (Q96EB6 1-747): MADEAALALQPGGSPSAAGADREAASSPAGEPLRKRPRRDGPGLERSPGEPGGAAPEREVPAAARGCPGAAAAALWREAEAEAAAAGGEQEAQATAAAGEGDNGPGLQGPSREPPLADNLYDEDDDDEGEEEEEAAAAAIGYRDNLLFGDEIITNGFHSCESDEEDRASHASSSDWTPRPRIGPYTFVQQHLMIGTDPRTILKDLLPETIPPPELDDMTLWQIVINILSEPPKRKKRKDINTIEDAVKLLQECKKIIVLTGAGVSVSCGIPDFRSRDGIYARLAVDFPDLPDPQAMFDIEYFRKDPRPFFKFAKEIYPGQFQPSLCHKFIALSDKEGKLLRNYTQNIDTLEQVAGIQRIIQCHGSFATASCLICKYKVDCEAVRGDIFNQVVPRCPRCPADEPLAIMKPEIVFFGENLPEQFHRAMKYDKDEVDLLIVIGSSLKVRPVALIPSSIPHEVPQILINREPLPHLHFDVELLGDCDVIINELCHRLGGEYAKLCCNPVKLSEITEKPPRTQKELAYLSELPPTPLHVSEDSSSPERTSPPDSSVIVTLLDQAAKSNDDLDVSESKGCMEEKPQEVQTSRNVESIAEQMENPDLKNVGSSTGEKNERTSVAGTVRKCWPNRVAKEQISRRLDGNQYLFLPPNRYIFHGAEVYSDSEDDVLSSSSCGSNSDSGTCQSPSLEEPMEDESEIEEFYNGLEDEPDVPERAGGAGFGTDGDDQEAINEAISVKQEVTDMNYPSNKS
Protocol: A fluorescence polarization or mass spectrometry based assay was used to identify modulators of SIRT1 activity. The same assay may be used to identify modulators of any sirtuin protein. The fluorescence polarization assays utilizes one of two different peptides based on a fragment of p53, a known sirtuin deacetylation target. Compounds 1-18 were tested using a substrate containing peptide 1 having 14 amino acid residues as follows: […](Ac)NleSTEG (SEQ ID NO: 1) wherein K(Ac) is an acetylated lysine residue and Nle is a norleucine. The peptide is labeled with the fluorophore MR121 (excitation 635 nm/emission 680 nm) at the C-terminus and biotin at the N-terminus. The sequence of the peptide substrate is based on p53 with several modifications. In particular, all arginine and leucine residues other than the acetylated lysine have replaced with serine so that the peptide is not susceptible to trypsin cleavage in the absence of deacetylation. In addition, the methionine residue naturally present in the sequence has been replaced with the norleucine because the methionine may be susceptible to oxidation during synthesis and purification. […] This peptide is labeled with the fluorophore MR121 (excitation 635 nm/emission 680 nm) at the C-termini and biotin at the N-termini. The sequence of the peptide substrates are based on p53 with several modifications. In particular, all arginine and leucine residues other than the acetylated lysine residues have replaced with serine so that the peptides are not susceptible to trypsin cleavage in the absence of deacetylation. In addition, the methionine residues naturally present in the sequences have been replaced with the norleucine because the methionine may be susceptible to oxidation during synthesis and purification. […] The peptide is labeled with the fluorophore 5TMR (excitation 540 nm/emission 580 nm) at the C-terminus. The sequence of the peptide substrate is also based on p53 with several modifications. In addition, the methionine residue naturally present in the sequence was replaced with the norleucine because the methionine may be susceptible to oxidation during synthesis and purification.
The peptide substrates were exposed to a sirtuin protein in the presence of NAD^+ to allow deacetylation of the substrate and render it sensitive to cleavage by trypsin. Trypsin was then added and the reaction was carried to completion (i.e., the deacetylated substrate is cleaved) releasing the MR121 or 5TMR fragment. Streptavidin is then added to the reaction where it can bind both the uncleaved substrate (i.e., any remaining acetylated substrate) and the non-fluorescent portion of the cleaved peptide substrate (i.e., the biotin containing fragment). The fluorescence polarization signal observed for the full length peptide substrates bound to streptavidin was higher than the fluorescence polarization signal observed for the released MR121 or 5TMR C-terminal fragment. In this way, the fluorescence polarization obtained is inversely proportional to the level of deacetylation (e.g., the signal is inversely proportional to the activity of the sirtuin protein). Results were read on a microplate fluorescence polarization reader (Molecular Devices Spectramax MD) with appropriate excitation and emission filters.
The fluorescence polarization assays using peptide 1 was conducted as follows: 0.5 μM peptide substrate and 150 μM βNAD^+ is incubated with 0.1 μg/mL of SIRT1 for 60 minutes at 37° C. in a reaction buffer (25 mM Tris-acetate pH8, 137 mM Na—Ac, 2.7 mM K—Ac, 1 mM Mg—Ac, 0.05% Tween-20, 0.1% Pluronic F127, 10 mM CaCl2, 5 mM DTT, 0.025% BSA, 0.15 mM Nicotinamide). Test compounds 1-18 were solubilized in DMSO and added to the reaction at 11 concentrations ranging from 0.7 μM to 100 μM. […]

SIRT1 [2] = target: T1, SIRT1; test: SIRT1 mass spectrometry (MS) based deacetylation assay; format: biochemical; conditions: for EC50: SIRT1 activation, mass spectrometry assay, read-out: ED50 MS ASSAY; for FOLD ACT. MS: fold activation of SIRT1 as determined by MS
NCI-H358 cells = test: Cellular ATP Assay (ATPLite 1Step normalized to AlamarBlue viability); format: cell-based; conditions: Homo sapiens, compounds that raised intracellular ATP levels, read-out: ED50 ATP ASSAY
Protocol: Cellular ATP levels are an indirect measurement of cellular metabolic rates and, by extension, mitochondrial function. […] The ATP assay is combined with a cellular viability assay so that cellular ATP levels can be normalized to viable cells. Cellular ATP levels were measured using the ATPLite 1Step Kit (PerkinElmer) and cellular viability was measured using the cell permeable dye, AlamarBlue™.
The Cellular ATP Assay is a multiplexed assay that measures both ATP levels and viability of a given cell sample. This assay is run in a 96-well Assay Plate and data are reported as the [ATP]/viability for each well in the Assay Plate.
The ATPLite 1 Step™ Kit is a single-step luminescent cell-based assay for detection of ATP. The kit contains lyophilized substrate mixture, comprised of D-luciferin and the firefly (Photinus pyralis) enzyme luciferase. Additionally, the kit contains a detergent-based reconstitution buffer that induces the lysis of cellular membranes. The luciferase in the assay mixture catalyzes a reaction between the free cellular ATP and D-luciferin to produce bioluminescence according to the schematic reaction outlined below. The amount of light produced is proportional to the cellular ATP concentration.
The AlamarBlue™ Assay is a single-step assay that utilizes a soluble, non-toxic, cell permeable dye that is added to cell growth media. This dye undergoes electron reduction in viable cells but not dead cells. The reduced dye product gives a fluorescent signal which can be monitored with a fluorescence plate reader (excitation 545 nm and emission 575 nm). The amount of fluorescence generated in a given well is proportional to the number of viable cells. The viability signal generated by this assay is used to normalize the ATP signal from the ATPLite 1Step™ assay results.
The material was dissolved in 100% vehicle (DMSO) to yield a final concentration of 10 mM (stock solution). The stock solution was serially diluted with 100% DMSO as described in SOP 7.10.
In this assay NCI-H358 cells (obtained from the American Tissue Culture Collection, ATCC) were seeded in 96 well microplates (10^4 cells/well). The NCI-H358 Growth Culture Media consists of RPMI 1640 Media supplemented with 10% FBS, […] streptomycin, and 100 units/mL penicillin. […] After 48 hours of compound treatment under cell growth conditions, plates were removed from incubator, and 15 μl of AlamarBlue™ dye was added to each well. Cell microplates were incubated with dye for 2 hours under growth conditions, and fluorescence was subsequently measured using a plate reader. Media containing AlamarBlue™ was removed, and plates were washed in 100 μl of PBS per well. This wash was removed, and 200 μl of 1×ATPLite 1Step reagent was added to each well. Luminescence was then measured using a plate reader. The ATP signal for each well, measured by the luminescence scan, was normalized to its corresponding cell viability value, measured by the fluorescence scan, to generate the average ATP level per viable cell unit (ATP/vCell). The ATP/vCell for each treatment was then normalized to the average vehicle ATP/vCell for its respective cell microplate, yielding the normalized ATP/vCell (norm. ATP/vCell). Finally, the norm. ATP/vCell for each unique treatment was averaged across plate replicates, generating the average norm. ATP/vCell.
Each of these ATP levels was normalized to the cell viability in the corresponding treatment well, generating the ATP/vCell value. Each ATP/vCell value was subsequently normalized to its average Vehicle ATP/vCell values for its respective cell microplate.
Data are represented as the normalized ATP/vCell (arbitrary units). […] These values represent an average of three plate replicates.
A number of compounds were screened for their affect on ATP levels in the assay as described in Example 5. […] NA means that the compound was not tested using the indicated assay.

| Structure (SMILES) | EC50 (SIRT1 [1]) | EC50 (SIRT1 [2]) | FOLD ACT. MS (SIRT1 [2]) | EC50 (NCI-H358 cells) |
| --- | --- | --- | --- | --- |
| CN(C)c1ccc(C(=O)Nc2cccc(-c3nc4ncccc4o3)c2)cc1 [Compound 43] | 5 to 50 µM | 5 to 50 µM | B (B (Fold Activation <250%)) |  |
| COc1ccc(C(=O)Nc2cccc(-c3nc4ncccc4o3)c2)cc1OC [Compound 52] | 5 to 50 µM | 5 to 50 µM | B (B (Fold Activation <250%)) | < 50 µM |
| COc1ccc(C(=O)Nc2cccc(-c3nc4ncccc4o3)c2)c(OC)c1 [Compound 55] | 5 to 50 µM | 5 to 50 µM | B (B (Fold Activation <250%)) |  |

Second part, led by results:

| EC50 (SIRT1 [1]) | EC50 (SIRT1 [2]) | FOLD ACT. MS (SIRT1 [2]) | Structure (SMILES) | EC50 (NCI-H358 cells) |
| --- | --- | --- | --- | --- |
| 5 to 50 µM | 5 to 50 µM | B (B (Fold Activation <250%)) | CN(C)c1cccc(C(=O)Nc2cccc(-c3nc4ncccc4o3)c2)c1 [Compound 42] | < 50 µM |
| 5 to 50 µM | 5 to 50 µM | B (B (Fold Activation <250%)) | COc1cc(C)ccc1C(=O)Nc1cccc(-c2nc3ncccc3o2)c1 [Compound 51] |  |

From patent US8044198B2, “Sirtuin modulating compounds” (Sirtris Pharmaceuticals, Inc., priority 2005, dated 2011)
